Results: patent US5928666A, “Crystalline form of estradiol and pharmaceutical formulations comprising same” (Cygnus Inc., priority 1997, dated 1999)

Assays:
[1] = Flux of estradiol from equilibrated acrylate adhesive matrices through a 10 mil Silastic membrane (Example 7, Table 2); assay type: in vitro ADME; details: for Flux: 20 wt % acrylate matrix, 10 mil Silastic membrane, 32° C.; for average flux: average from Table 2 data
Experimental: Consequently, Crystal X provides an advantage in the preparation of pharmaceutical formulations comprising Crystal X especially transdermal drug delivery matrices. When Crystal X crystals are prepared in transdernal drug delivery formulations,the inherent increase in activity due to the higher thermodynamic activity of the Crystal X crystal versus E2-HH provides for increased flux. For example, equilibrated matrices containing Crystal X and E2-HH crystals were prepared in substantial accordance with the teaching of Example 7 herein and assayed for permeation through a Silastic membrane.
Measurement of estradiol flux was determined by drug flux through a 10 mil Silastic membrane in a modified Franz diffusion cells in substantial accordance with the following procedure. The adhesive matrix systems were peeled off the polyester release liner and placed on top of the Silastic membrane. Gentle pressure was applied to insure full contact between the drug adhesive layer and membrane. The membrane with the prototype system was then mounted carefully between the donor and the receiver compartments. The receiver compartment was filled nanopure water and the temperature was maintained at 32° C.±1° C. throughout the experimental period. Samples of receiver content was withdrawn and replaced with fresh buffer. Samples were assayed by HPLC.
Membrane flux (mg/cm^2 /hr) was determined by evaluating the cumulative flux of drug through a Silastic membrane over a given period of time and dividing by the time period. After steady state had been established, the flux values corresponding to steady state were averaged to obtain the flux value.
20 wt % acrylate adhesive matrices were prepared in accordance with Example 1. 20 % Crystal X was prepared in accordance with Example 3. The laminates were allowed to equilibrate for a period of 8 weeks to insure complete crystal structureation. Flux was determined as permeation through a 10 mil Silastic membrane as described above. The cumulative release of estradiol into the receiver was determined by HPLC method described above. The average flux over the period was calculated as the cumulative amount of drug in receiver divided by cumulative time.

[2] = cited from earlier work

Compound | Flux ([1]; 2.5 hrs) [μg/cm^2 /hr] | Flux ([1]; 8.375 hrs) [μg/cm^2 /hr] | Flux ([1]; 17.625 hrs) [μg/cm^2 /hr] | Flux ([1]; 27.75 hrs) [μg/cm^2 /hr] | average flux [1] [μg/cm^2 /hr] | flux value at the end of the flux profile relative to E2-HH ([1]; higher than for E2-HH, 32° C. wet) | thermodynamic activity ([1]; versus E2-HH) | blood level in hormone replacement therapy ([2]; level the normal dosage is to produce, hormone replacement therapy) | blood level for treatment of osteoporosis ([2]; level utilized, osteoporosis)
C[C@]12CC[C@@H]3c4ccc(O)cc4CC[C@H]3[C@@H]1CC[C@@H]2O [Crystal X, estra-1, 3, 5(10)-triene-3, 17β-diol] | 0.132 | 0.238 | 0.216 | 0.220 | 0.22 | about 2 times | increased thermodynamic activity with respect to E2-HH |  | 
C[C@]12CC[C@@H]3c4ccc(O)cc4CC[C@H]3[C@@H]1CC[C@@H]2O [E2-HH] | 0.080 | 0.139 | 0.142 | 0.146 | 0.14 |  |  |  | 
C[C@]12CC[C@@H]3c4ccc(O)cc4CC[C@H]3[C@@H]1CC[C@@H]2O [estradiol, estra-1, 3, 5(10)-triene-3, 17β-diol] |  |  |  |  |  |  |  | about 30 ng/L | approximately 40 ng/L
